Measurements as given in publication PMC10294832, “Investigation of Naphthyl–Polyamine Conjugates as Antimicrobials and Antibiotic Enhancers” (Antibiotics, 2023).
Where two headings read alike, the source gives them in different places.

What was measured:
[1] = tested on: S. aureus (ATCC 25,923 or ATCC 29213); experiment: Antimicrobial MIC, S. aureus; format: cell-based, Staphylococcus aureus; conditions: mean (n = 3)
Experimental: (§1) The susceptibility of bacterial strains S. aureus (ATCC 25,923 or 29213), E. coli (ATCC 25922), and P. aeruginosa (ATCC 27853) to antibiotics and compounds was determined according to previously reported protocols. Additional antimicrobial evaluation against MRSA (ATCC 43300), Klebsiella pneumoniae (ATCC 700603), Acinetobacter baumannii (ATCC 19606), Candida albicans (ATCC 90028), and Cryptococcus neoformans (ATCC 208821) was undertaken at the Community for Open Antimicrobial Drug Discovery at The University of Queensland (Australia) according to their standard protocols as reported previously.

[2] = tested on: MRSA (ATCC 43300); experiment: Antimicrobial MIC, MRSA; format: cell-based, methicillin-resistant Staphylococcus aureus; conditions: MRSA (ATCC 43300), mean (n = 2), read-out: MIC MRSA
Experimental: as §1

[3] = tested on: P. aeruginosa (PAO1 or ATCC 27853); experiment: Antimicrobial MIC, P. aeruginosa; format: cell-based; conditions: Pseudomonas aeruginosa; P. aeruginosa (PAO1 or ATCC 27853); mean (n = 3); read-out: MIC P. a
Experimental: as §1

[4] = tested on: E. coli (ATCC 25922); experiment: Antimicrobial MIC, E. coli; format: cell-based, Escherichia coli; conditions: mean (n = 2)
Experimental: as §1

[5] = tested on: K. pneumoniae (ATCC 700603); experiment: Antimicrobial MIC, K. pneumoniae; format: cell-based; conditions: Klebsiella pneumoniae, ATCC700603, mean (n = 2)
Experimental: as §1

[6] = tested on: A. baumannii (ATCC 19606); experiment: Antimicrobial MIC, A. baumannii; format: cell-based, Acinetobacter baumannii; conditions: mean (n = 2)
Experimental: as §1

[7] = tested on: C. albicans (ATCC 90028); experiment: Antifungal MIC, C. albicans; format: cell-based; conditions: Candida albicans, ATCC90028, mean (n = 2)
Experimental: as §1

[8] = tested on: C. neoformans (ATCC 208821); experiment: Antifungal MIC, C. neoformans; format: cell-based, Cryptococcus neoformans; conditions: mean (n = 2)
Experimental: as §1

[9] = Cytotoxicity assay; format: cell-based, human; conditions: human, HEK293 human embryonic kidney cells, concentration at 50% cytotoxicity on HEK293 cells; mean (n = 2)
Experimental: Cytotoxicity assays were conducted using the protocols previously reported.

[10] = tested on: human red blood cells; experiment: Hemolytic assay; format: cell-based; conditions: concentration at 10% hemolytic activity on human red blood cells; mean (n = 2)
Experimental: Hemolysis assays were conducted using the protocols previously reported.

[11] = tested on: P. aeruginosa (ATCC 27853); experiment: Enhancement of doxycycline activity; format: cell-based, Pseudomonas aeruginosa; conditions: for Dox/P.a: concentration required to restore doxycycline activity (combination MIC): doxycycline fixed at 4.5 µM (2 µg/mL), P. aeruginosa (ATCC 27853); for Dox/P.a fold change: ratio between intrinsic MIC of test compound and combination MIC, doxycycline 4.5 µM, P. aeruginosa
[12] = tested on: E. coli (ATCC 25922); experiment: Enhancement of erythromycin activity; format: cell-based, Escherichia coli; conditions: for Eryth/E.c: concentration required to restore erythromycin activity (combination MIC): erythromycin fixed at 10.9 µM (8 µg/mL), E. coli (ATCC 25922); for Eryth/E.c fold change: ratio between intrinsic MIC of test compound and combination MIC, erythromycin 10.9 µM, E. coli
Experimental: Restoring enhancer concentrations were determined using previously reported protocols.

[13] = Escherichia coli, ATCC25922, E. coli (ATCC 25922)
[14] = Acinetobacter baumannii, ATCC19606, A. baumannii (ATCC 19606)
[15] = Cryptococcus neoformans, ATCC208821, C. neoformans (ATCC 208821)

Row | MIC ([1]; Staphylococcus aureus) | MIC ([2]; Staphylococcus aureus) | MIC [3] | MIC [4, 13] | MIC [5] | MIC [6, 14] | MIC [7] | MIC [8, 15] | Dox/P.a: concentration required to restore doxycycline activity (combination MIC) [11] | Eryth/E.c: concentration required to restore erythromycin activity (combination MIC) [12] | MIC [2] | MIC ([6]; A. baumannii (ATCC 19606)) | MIC ([8]; C. neoformans (ATCC 208821)) | MIC [1] | MIC ([4]; E. coli (ATCC 25922)) | SMILES | IC50 [9] | Hemolysis HC10 [10] | Dox/P.a fold change [11] | Eryth/E.c fold change [12]
1 | > 200 µM | > 34.7 µM | 200 µM | 200 µM | > 34.7 µM | > 34.7 µM | > 34.7 µM | > 34.7 µM | 12.5 µM | 200 µM |  |  |  |  |  | O=C(CCC(=O)Nc1cccc2ccccc12)NCCCNCCCCCCCNCCCNC(=O)CCC(=O)Nc1cccc2ccccc12.O=C(O)C(F)(F)F.O=C(O)C(F)(F)F [Compound 18c, N^1,N^7-Bis(3-(4-(naphthalen-1-ylamino)-4-oxobutanamido)propyl)heptane-1,7-diaminium 2,2,2-trifluoroacetate] | > 34.7 µM | >34.7 µM | 16 fold | 1 fold
2 | 104 µM | 33.2 µM | 518 µM | 518 µM | > 33.2 µM | > 33.2 µM | > 33.2 µM | 33.2 µM | 207 µM | 51.8 µM |  |  |  |  |  | O=C(CCC(=O)Nc1cccc2ccccc12)NCCCNCCCCCCCCCCNCCCNC(=O)CCC(=O)Nc1cccc2ccccc12.O=C(O)C(F)(F)F.O=C(O)C(F)(F)F [Compound 18e, N^1,N^10-Bis(3-(4-(naphthalen-1-ylamino)-4-oxobutanamido)propyl)decane-1,10-diaminium 2,2,2-trifluoroacetate] | > 33.2 µM | >33.2 µM | 2.5 fold | 10 fold
3 | 65.2 µM | 41.7 µM | > 130 µM | 130 µM | > 41.7 µM | > 41.7 µM | > 41.7 µM | 20.9 µM | 65.2 µM | 65.2 µM |  |  |  |  |  | O=C(NCCCNCCCCCCNCCCNC(=O)c1ccc2ccccc2c1)c1ccc2ccccc2c1.O=C(O)C(F)(F)F.O=C(O)C(F)(F)F [Compound 19b, N^1,N^6-Bis(3-(2-naphthamido)propyl)hexane-1,6-diaminium 2,2,2-trifluoroacetate] | > 41.7 µM | >41.7 µM | > 2 fold | 2 fold

More lines, now with the values behind:

Row | SMILES | MIC ([1]; Staphylococcus aureus) | MIC ([2]; Staphylococcus aureus) | MIC [3] | MIC [4, 13] | MIC [5] | MIC [6, 14] | MIC [7] | MIC [8, 15] | Dox/P.a: concentration required to restore doxycycline activity (combination MIC) [11] | Eryth/E.c: concentration required to restore erythromycin activity (combination MIC) [12] | MIC [2] | MIC ([6]; A. baumannii (ATCC 19606)) | MIC ([8]; C. neoformans (ATCC 208821)) | MIC [1] | MIC ([4]; E. coli (ATCC 25922)) | IC50 [9] | Hemolysis HC10 [10] | Dox/P.a fold change [11] | Eryth/E.c fold change [12]
4 | O=C(CCC(=O)Nc1ccc2ccccc2c1)NCCCNCCCCCCCNCCCNC(=O)CCC(=O)Nc1ccc2ccccc2c1.O=C(O)C(F)(F)F.O=C(O)C(F)(F)F [Compound 20c, N^1,N^7-Bis(3-(4-(naphthalen-2-ylamino)-4-oxobutanamido)propyl)heptane-1,7-diaminium 2,2,2-trifluoroacetate] | 25 µM | 2.2 µM | > 200 µM | 25 µM | > 34.7 µM | > 34.7 µM | > 34.7 µM | ≤ 0.27 µM | 6.25 µM | 12.5 µM |  |  |  |  |  | > 34.7 µM | >34.7 µM |  | 2 fold
5 | O=C(NCCCNCCCCCCCCCCCCNCCCNC(=O)c1ccc2ccccc2c1)c1ccc2ccccc2c1.O=C(O)C(F)(F)F.O=C(O)C(F)(F)F [Compound 19f, N^1,N^12-Bis(3-(2-naphthamido)propyl)dodecane-1,12-diaminium 2,2,2-trifluoroacetate] | 100 µM | 0.29 µM | 300 µM | 300 µM | > 37.6 µM | 0.29 µM | > 37.6 µM | 0.29 µM | 300 µM | 300 µM | 0.294 µM | 0.294 µM | 0.294 µM |  |  | > 37.6 µM | >37.6 µM | 1 fold | 1 fold
6 | O=C(NCCCNCCCCCCCCCCNCCCNC(=O)c1cccc2ccccc12)c1cccc2ccccc12.O=C(O)C(F)(F)F.O=C(O)C(F)(F)F [Compound 17e, N^1,N^10-Bis(3-(1-naphthamido)propyl)decane-1,10-diaminium 2,2,2-trifluoroacetate] | 244 µM | 9.7 µM | 608 µM | 608 µM | > 38.9 µM | > 38.9 µM | > 38.9 µM | 38.9 µM | 608 µM | 122 µM | 9.72 µM |  |  |  |  | 23.7 µM | >38.9 µM | 1 fold | 5 fold
7 | O=C(CCC(=O)Nc1cccc2ccccc12)NCCCNCCCCCCCCCCCCNCCCNC(=O)CCC(=O)Nc1cccc2ccccc12.O=C(O)C(F)(F)F.O=C(O)C(F)(F)F [Compound 18f, N^1,N^12-Bis(3-(4-(Naphthalen-1-ylamino)-4-oxobutanamido)propyl)dodecane-1,12-diaminium 2,2,2-trifluoroacetate] | 3.12 µM | ≤ 0.25 µM | > 100 µM | 6.3 to 12.5 µM | > 32 µM | > 32 µM | > 32 µM | ≤ 0.25 µM | 50.3 µM | 6.29 µM |  |  |  | 3.15 µM | 12.5 µM | > 32.2 µM | >32.2 µM | > 2 fold | 2 fold
8 | O=C(NCCCNCCCCCCCCNCCCNC(=O)c1ccc2ccccc2c1)c1ccc2ccccc2c1.O=C(O)C(F)(F)F.O=C(O)C(F)(F)F [Compound 19d, N^1,N^8-Bis(3-(2-naphthamido)propyl)octane-1,8-diaminium 2,2,2-trifluoroacetate] | 7.9 µM | 40.3 µM | 126 µM | 126 µM | > 40.3 µM | > 40.3 µM | > 40.3 µM | 40.3 µM | 15.7 µM | 15.7 µM |  |  |  |  |  | > 40.3 µM | >40.3 µM | 8 fold | 8 fold
